Laboratory results: patent US9179694B2, “Method and composition for enhancing milk production and milk component concentrations” (PURINA ANIMAL NUTRITION LLC, priority 2003, dated 2015)

Experiment: Milk production (as is basis) in sorbitol feeding trials
Format: in vivo, Holstein cows
Method: Each cow of each of the six different trials (Control Trial #1, Control Trial #2, Pre-Partum Trial #1, Pre-Partum Trial #2, Pre/Post Trial #1, and Pre/Post Trial #2) was milked three times daily and the weight of produced milk by each cow was recorded at each milking. The milk from each cow was sampled once per week (⅓ of the sample volume from each of the three milkings occurring on the weekly milk sampling day) and was analyzed for true protein, total fat, lactose, and total solids, as detailed in the property determination and characterization techniques presented above. Additionally, samples of blood were periodically obtained from each cow during the four trials (Control Trial 2, Pre-Partum Trial #2, Pre/Post Trial #1, and Pre/Post Trial #2) encompassed in Example Two and were analyzed for non-esterified fatty acid (NEFA) content as detailed in the property determination and characterization techniques presented above. No NEFA analysis was conducted on the cows employed in Control Trial #1 or Pre-Partum Trial #1 that are the subject of Example One. Example One includes Control Trial #1 and Pre-Partum Trial #1. Both primiparious cows and multiparious cows were included in Control Trial #1 and Pre-Partum Trial #1. Five primiparious cows and fifteen multiparious cows were included in Control Trial #1; likewise, five primiparious cows and fifteen multiparious cows were included in Pre-Partum Trial #1. All cows included in Control Trial #1 and Pre-Partum Trial #1 were Holsteins. Example Two includes Control Trial #2, Pre-Partum Trial #2, Pre/Post Trial #1, and Pre/Post Trial #2. Only multiparious, Holstein cows were included in Control Trial #2, Pre-Partum Trial #1, Pre/Post Trial #1, and Pre/Post Trial #2. Eighteen multiparious cows were included in both Control Trial #2 and Pre-Partum Trial #2, while sixteen multiparious cows were included in Pre/Post Trial #1 and seventeen multiparious cows were included in Pre/Post Trial #2.

Question: Which “Milk Production (As Is Basis)” value (Pre-Partum Trial #1 (75/0/0 g/day in wk −3..−1/+1..+4/+5..+8), multiparious cows, weeks +1 through +8) does the source give for `OC[C@@H](O)[C@@H](O)[C@H](O)[C@@H](O)CO` [sorbitol] here?
Answer: 99.9 lbs/day

Question: And the “Milk Production (As Is Basis)” value (Pre-Partum Trial #1 (75/0/0 g/day in wk −3..−1/+1..+4/+5..+8), primiparious cows, weeks +1 through +8)?
Answer: 71.7 lbs/day

Question: What about the “increase in milk production” value (Pre-Partum Trial #1 (75 g/day wk −3..−1 only) versus Control Trial #1, multiparious cows, weeks +1 through +8) of the same molecule?
Answer: 9.2%

Question: And the “Milk Production (As Is Basis)” value (Pre-Partum Trial #2 (75/0/100 g/day in wk −3..−1/+1..+4/+5..+8), multiparious cows, week +1)?
Answer: 62.8 lbs/day

Question: And the “Milk Production (As Is Basis)” value (Pre-Partum Trial #2 (75/0/100 g/day in wk −3..−1/+1..+4/+5..+8), multiparious cows, week +2)?
Answer: 92.6 lbs/day

Question: What about the “Milk Production (As Is Basis)” value (Pre-Partum Trial #2 (75/0/100 g/day in wk −3..−1/+1..+4/+5..+8), multiparious cows, week +3) of the same molecule?
Answer: 102 lbs/day

Question: And the “Milk Production (As Is Basis)” value (Pre-Partum Trial #2 (75/0/100 g/day in wk −3..−1/+1..+4/+5..+8), multiparious cows, week +4)?
Answer: 111 lbs/day

Question: And the “Milk Production (As Is Basis)” value (Pre-Partum Trial #2 (75/0/100 g/day in wk −3..−1/+1..+4/+5..+8), multiparious cows, week +5)?
Answer: 115 lbs/day

Question: What about the “Milk Production (As Is Basis)” value (Pre-Partum Trial #2 (75/0/100 g/day in wk −3..−1/+1..+4/+5..+8), multiparious cows, week +6) of the same molecule?
Answer: 115 lbs/day

Question: And the “Milk Production (As Is Basis)” value (Pre-Partum Trial #2 (75/0/100 g/day in wk −3..−1/+1..+4/+5..+8), multiparious cows, week +7)?
Answer: 115 lbs/day

Question: What about the “Milk Production (As Is Basis)” value (Pre-Partum Trial #2 (75/0/100 g/day in wk −3..−1/+1..+4/+5..+8), multiparious cows, week +8) of the same molecule?
Answer: 111 lbs/day

Question: What about the “Milk Production (As Is Basis)” value (Pre-Partum Trial #2 (75/0/100 g/day in wk −3..−1/+1..+4/+5..+8), multiparious cows, weeks +1 through +4) of the same molecule?
Answer: 92.0 lbs/day

Question: What about the “Milk Production (As Is Basis)” value (Pre-Partum Trial #2 (75/0/100 g/day in wk −3..−1/+1..+4/+5..+8), multiparious cows, weeks +1 through +8) of the same molecule?
Answer: 103 lbs/day

Question: What about the “Milk Production (As Is Basis)” value (Pre-Partum Trial #2 (75/0/100 g/day in wk −3..−1/+1..+4/+5..+8), multiparious cows, weeks +5 through +8) of the same molecule?
Answer: 115 lbs/day

Question: And the “Milk Production (As Is Basis)” value (Pre/Post Trial #1 (150/125/100 g/day in wk −3..−1/+1..+4/+5..+8), multiparious cows, week +1)?
Answer: 67.9 lbs/day

Question: And the “Milk Production (As Is Basis)” value (Pre/Post Trial #1 (150/125/100 g/day in wk −3..−1/+1..+4/+5..+8), multiparious cows, week +1, two-trial comparison with Control Trial #2 (Table 23))?
Answer: 68.4 lbs/day

Question: What about the “Milk Production (As Is Basis)” value (Pre/Post Trial #1 (150/125/100 g/day in wk −3..−1/+1..+4/+5..+8), multiparious cows, week +2) of the same molecule?
Answer: 93.8 lbs/day

Question: What about the “Milk Production (As Is Basis)” value (Pre/Post Trial #1 (150/125/100 g/day in wk −3..−1/+1..+4/+5..+8), multiparious cows, week +2, two-trial comparison with Control Trial #2 (Table 23)) of the same molecule?
Answer: 93.9 lbs/day

Question: And the “Milk Production (As Is Basis)” value (Pre/Post Trial #1 (150/125/100 g/day in wk −3..−1/+1..+4/+5..+8), multiparious cows, week +3)?
Answer: 104 lbs/day

Question: What about the “Milk Production (As Is Basis)” value (Pre/Post Trial #1 (150/125/100 g/day in wk −3..−1/+1..+4/+5..+8), multiparious cows, week +3, two-trial comparison with Control Trial #2 (Table 23)) of the same molecule?
Answer: 104 lbs/day

Question: And the “Milk Production (As Is Basis)” value (Pre/Post Trial #1 (150/125/100 g/day in wk −3..−1/+1..+4/+5..+8), multiparious cows, week +4)?
Answer: 109 lbs/day

Question: What about the “Milk Production (As Is Basis)” value (Pre/Post Trial #1 (150/125/100 g/day in wk −3..−1/+1..+4/+5..+8), multiparious cows, week +4, two-trial comparison with Control Trial #2 (Table 23)) of the same molecule?
Answer: 109 lbs/day

Question: And the “Milk Production (As Is Basis)” value (Pre/Post Trial #1 (150/125/100 g/day in wk −3..−1/+1..+4/+5..+8), multiparious cows, week +5)?
Answer: 113 lbs/day

Question: And the “Milk Production (As Is Basis)” value (Pre/Post Trial #1 (150/125/100 g/day in wk −3..−1/+1..+4/+5..+8), multiparious cows, week +5, two-trial comparison with Control Trial #2 (Table 23))?
Answer: 113 lbs/day

Question: What about the “Milk Production (As Is Basis)” value (Pre/Post Trial #1 (150/125/100 g/day in wk −3..−1/+1..+4/+5..+8), multiparious cows, week +6) of the same molecule?
Answer: 113 lbs/day

Question: What about the “Milk Production (As Is Basis)” value (Pre/Post Trial #1 (150/125/100 g/day in wk −3..−1/+1..+4/+5..+8), multiparious cows, week +6, two-trial comparison with Control Trial #2 (Table 23)) of the same molecule?
Answer: 113 lbs/day

Question: And the “Milk Production (As Is Basis)” value (Pre/Post Trial #1 (150/125/100 g/day in wk −3..−1/+1..+4/+5..+8), multiparious cows, week +7)?
Answer: 112 lbs/day

Question: And the “Milk Production (As Is Basis)” value (Pre/Post Trial #1 (150/125/100 g/day in wk −3..−1/+1..+4/+5..+8), multiparious cows, week +7, two-trial comparison with Control Trial #2 (Table 23))?
Answer: 112 lbs/day

Question: And the “Milk Production (As Is Basis)” value (Pre/Post Trial #1 (150/125/100 g/day in wk −3..−1/+1..+4/+5..+8), multiparious cows, week +8)?
Answer: 114 lbs/day

Question: And the “Milk Production (As Is Basis)” value (Pre/Post Trial #1 (150/125/100 g/day in wk −3..−1/+1..+4/+5..+8), multiparious cows, week +8, two-trial comparison with Control Trial #2 (Table 23))?
Answer: 115 lbs/day

Question: What about the “Milk Production (As Is Basis)” value (Pre/Post Trial #1 (150/125/100 g/day in wk −3..−1/+1..+4/+5..+8), multiparious cows, weeks +1 through +4) of the same molecule?
Answer: 93.6 lbs/day

Question: And the “Milk Production (As Is Basis)” value (Pre/Post Trial #1 (150/125/100 g/day in wk −3..−1/+1..+4/+5..+8), multiparious cows, weeks +1 through +4, two-trial comparison with Control Trial #2 (Table 23))?
Answer: 94.1 lbs/day

Question: What about the “Milk Production (As Is Basis)” value (Pre/Post Trial #1 (150/125/100 g/day in wk −3..−1/+1..+4/+5..+8), multiparious cows, weeks +1 through +8) of the same molecule?
Answer: 103 lbs/day

Question: And the “Milk Production (As Is Basis)” value (Pre/Post Trial #1 (150/125/100 g/day in wk −3..−1/+1..+4/+5..+8), multiparious cows, weeks +1 through +8, two-trial comparison with Control Trial #2 (Table 23))?
Answer: 104 lbs/day

Question: What about the “Milk Production (As Is Basis)” value (Pre/Post Trial #1 (150/125/100 g/day in wk −3..−1/+1..+4/+5..+8), multiparious cows, weeks +5 through +8) of the same molecule?
Answer: 113 lbs/day

Question: And the “Milk Production (As Is Basis)” value (Pre/Post Trial #1 (150/125/100 g/day in wk −3..−1/+1..+4/+5..+8), multiparious cows, weeks +5 through +8, two-trial comparison with Control Trial #2 (Table 23))?
Answer: 113 lbs/day

Question: What about the “Milk Production (As Is Basis)” value (Pre/Post Trial #2 (75/75/100 g/day in wk −3..−1/+1..+4/+5..+8), multiparious cows, week +1) of the same molecule?
Answer: 66.4 lbs/day

Question: And the “Milk Production (As Is Basis)” value (Pre/Post Trial #2 (75/75/100 g/day in wk −3..−1/+1..+4/+5..+8), multiparious cows, week +2)?
Answer: 92.8 lbs/day

Question: What about the “Milk Production (As Is Basis)” value (Pre/Post Trial #2 (75/75/100 g/day in wk −3..−1/+1..+4/+5..+8), multiparious cows, week +3) of the same molecule?
Answer: 102 lbs/day

Question: What about the “Milk Production (As Is Basis)” value (Pre/Post Trial #2 (75/75/100 g/day in wk −3..−1/+1..+4/+5..+8), multiparious cows, week +4) of the same molecule?
Answer: 108 lbs/day

Question: What about the “Milk Production (As Is Basis)” value (Pre/Post Trial #2 (75/75/100 g/day in wk −3..−1/+1..+4/+5..+8), multiparious cows, week +5) of the same molecule?
Answer: 113 lbs/day

Question: What about the “Milk Production (As Is Basis)” value (Pre/Post Trial #2 (75/75/100 g/day in wk −3..−1/+1..+4/+5..+8), multiparious cows, week +6) of the same molecule?
Answer: 113 lbs/day

Question: And the “Milk Production (As Is Basis)” value (Pre/Post Trial #2 (75/75/100 g/day in wk −3..−1/+1..+4/+5..+8), multiparious cows, week +7)?
Answer: 110 lbs/day

Question: What about the “Milk Production (As Is Basis)” value (Pre/Post Trial #2 (75/75/100 g/day in wk −3..−1/+1..+4/+5..+8), multiparious cows, week +8) of the same molecule?
Answer: 108 lbs/day

Question: And the “Milk Production (As Is Basis)” value (Pre/Post Trial #2 (75/75/100 g/day in wk −3..−1/+1..+4/+5..+8), multiparious cows, weeks +1 through +4)?
Answer: 91.7 lbs/day

Question: And the “Milk Production (As Is Basis)” value (Pre/Post Trial #2 (75/75/100 g/day in wk −3..−1/+1..+4/+5..+8), multiparious cows, weeks +1 through +8)?
Answer: 102 lbs/day

Question: And the “Milk Production (As Is Basis)” value (Pre/Post Trial #2 (75/75/100 g/day in wk −3..−1/+1..+4/+5..+8), multiparious cows, weeks +5 through +8)?
Answer: 111 lbs/day
